Test results: US7595403B2, “Benzisothiazol-3-one-carboxylic acid amides as phospholipase inhibitors” (Eli Lilly and Company, priority 2003, dated 2009)

Molecular target: T1, Recombinant Hepatic Lipase (Homo sapiens, UniProt P11150)
T1 construct: made in house; host or cells: AV12 cells
T1 sequence (P11150 23-499): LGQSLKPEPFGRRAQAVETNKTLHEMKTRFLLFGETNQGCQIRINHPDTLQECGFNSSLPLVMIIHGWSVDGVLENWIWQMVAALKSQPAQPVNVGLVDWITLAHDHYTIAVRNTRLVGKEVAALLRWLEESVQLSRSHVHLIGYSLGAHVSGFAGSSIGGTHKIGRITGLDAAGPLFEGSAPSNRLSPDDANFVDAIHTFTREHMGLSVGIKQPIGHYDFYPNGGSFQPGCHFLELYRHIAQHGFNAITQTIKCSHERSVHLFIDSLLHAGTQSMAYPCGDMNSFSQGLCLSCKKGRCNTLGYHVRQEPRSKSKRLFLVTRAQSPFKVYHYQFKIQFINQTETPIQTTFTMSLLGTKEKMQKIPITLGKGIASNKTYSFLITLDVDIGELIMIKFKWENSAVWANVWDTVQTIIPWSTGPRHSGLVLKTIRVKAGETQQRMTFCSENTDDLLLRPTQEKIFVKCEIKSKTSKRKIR
Assay: Hepatic Lipase Phospholipase Assay
Type: biochemical
Details: ThioPEG substrate, DTNB read at 412 nm, pH 8.3, 37° C., HL 12.5 nM
Procedure: Hepatic Lipase Phospholipase Assay
Efficacy was determined by testing various compounds of the invention in a hepatic lipase and/or endothelial lipase assay discussed below, and disclosed in U.S. patent application Ser. No. 09/609, 871 filed Jul. 3, 2000 incorporated herein in its entirety for U.S Patent Office purposes.
• Substrate Buffer A: 100 mM Hepes, pH 8.3 at 37° C. • Substrate Buffer B: 100 mM Hepes, pH 8.3 at 37° C. with 6.83 mM Triton X100 • ThioPEG: Molecular wt. of 540 • Recombinant Hepatic Lipase • Thiophospholipid: about 0.42 mM thiophospholipid in chloroform • DTNB Solution: about […] DTNB in DMSO (dimethyl sulfoxide) Hepes Buffer A
For Hepes Buffer A, there is 2.4 g Hepes/100 mL water. Therefore 36 grams of Hepes is dissolved in 1500 mL of water. The mix solution's pH is adjusted to pH83 at 37° C. and brought up to 1500 mL with water. 500 mL of Buffer A is retained for the Protein Buffer.
To the remaining 1000 mL of Hepes Buffer A, 4.49 g of Triton X-100 is added and then the combination mixed on a stir plate. It is optimal that stock Buffer A not be too cold or Triton X-100 will take a long time to go into solution
For 0.42 mM substrate stock, use 0.227 mg of thioPEG/mL of Substrate Buffer B. Approximately 20 mg of sn-1 thiol substituted Phosphatidyl Ethylene Glycol (see Examples for preparation method) is weighed into a vial, such as a scintillation vial. Enough chloroform should be added to make a 2.043 mg/mL solution. Sonicate the solution briefly until well dissolved. Next, pipette 1 mL of chloroform/substrate solution into each scintillation vial. This should give enough substrate for one full 96 well plate. Each vial is dried with nitrogen until solvent removed, swirling each vial simultaneously such that a thin film of substrate will be easily reconstituted in each buffer. Each vial is then frozen.
Daily stock preparation is-performed for 9 mL of substrate (one microtiter plate). On the day of the assay, the substrate vial is removed from the freezer and combined with 9 mL of pre-warmed (37° C.) substrate buffer (the final concentration is 0.227 mg/mL). Place the buffer in a 37° C. water bath. Sonicate for 5 minutes or vortex until solution is clear before use.
The enzyme is stored at −80° C. in 100 or 50 μL portions. A 0.406 mg/mL recombinant hepatic lipase and/or endothelial lipase stock requires a 50-fold dilution. Therefore, to a 50 μl or 100 μl enzyme aliquot, 2450 μl or 4900 μl, respectively, of substrate Buffer A (protein buffer) should be added. The enzyme should then be stored on ice until ready to use. The protein concentration of enzyme is about 0.406 mg/mL.
To make a 20 mg/mL stock solution, 2-3 mg of DTNB is weighed and then mixed with an appropriate amount of 100% DMSO (dimethyl sulfoxide) to make the desired concentration. This mixture is sonicated for five minutes.
The above solution should be diluted 10 fold with substrate Buffer B (concentration now 2 mg/mL). Then to the thioPEG substrate solution, add 60 μl of dilute DTNB per mL of thioPEG substrate solution. Thus for 9 mL of substrate, 540 microliters of dilute DTNB (final concentration in substrate solution=0.11 mg/mL).
The test compound is dissolved in pure DMSO at […]. As shown below in Table 2, assay concentrations are 10, 1, 0.1, 0.33, 0.011, 0.0037, 0.0012 and 0.00041 μM.
Using a spectrometer, DTNB is used as a thiol coloring reagent with an incubator temperature of 37° C. Substrate Buffer B is placed in a 37° C. water bath to pre-warm. The substrate is removed from the freezer and 9 mL of substrate Buffer B, 100 mM Hepes, 6.83 mM Tx-100) is added, sonicated for 5 min. and then kept in a 37° C. water bath. Dilutions of the test compound are next made in preparation for assay.
10 μl of the diluted test compound are transferred via pipette into the wells. Control wells receive 10 μl each of 10% DMSO and enzyme solution, while blank wells receive 10 microliters of 10% DMSO and 10 microliters of saline (no enzyme). […]
In the case of `CCCCCCNC(=O)n1sc2ccccc2c1=O`, the IC50 is reported as 724 ± 16 nM. Compound `CC(C)CCCCNC(=O)n1sc2ccccc2c1=O` has an IC50 of 622 ± 19 nM. `CCCCCCCNC(=O)n1sc2ccccc2c1=O` showed an IC50 of 757 ± 18 nM. Work on `CCCCCCCCNC(=O)n1sc2ccccc2c1=O` yielded an IC50 of 649 ± 17 nM. For `CCCCCCCCCCCCNC(=O)n1sc2ccccc2c1=O`, the IC50 was 933 ± 34 nM. For `Cc1ccccc1CNC(=O)n1sc2ccccc2c1=O`, the IC50 was 183 ± 6 nM. In the case of `Cc1cccc(CNC(=O)n2sc3ccccc3c2=O)c1`, the IC50 is reported as 409 ± 14 nM. With `Cc1ccc(CNC(=O)n2sc3ccccc3c2=O)cc1` the IC50 was 671 ± 18 nM. Work on `CC(C)NC(=O)n1sc2cc(Cl)ccc2c1=O` yielded an IC50 of 626 ± 20 nM. `CCCCCNC(=O)n1sc2cc(Cl)ccc2c1=O` gave an IC50 of 532 ± 10 nM. Work on `CCCCCCNC(=O)n1sc2cc(Cl)ccc2c1=O` yielded an IC50 of 333 ± 8 nM. In the case of `O=C(NC1CCCCC1)n1sc2cc(Cl)ccc2c1=O`, the IC50 is reported as 419 ± 7 nM. `O=C(NCc1ccccc1)n1sc2cc(Cl)ccc2c1=O` gave an IC50 of 893 ± 48 nM. With `CCCCCNC(=O)n1sc2ccccc2c1=O` [drawing 9] the IC50 was 879 ± 24 nM. Work on `CCc1cccc(C)c1CNC(=O)n1sc2ccccc2c1=O` [drawing 18] yielded an IC50 of 237 ± 4 nM. `Cc1cccc(C(C)C)c1CNC(=O)n1sc2ccccc2c1=O` [drawing 19] gave an IC50 of 238 ± 13 nM. Compound `O=C(NCCCc1ccccc1)n1sc2ccccc2c1=O` [drawing 20] has an IC50 of 430 ± 19 nM. `O=C(NCCCCc1ccccc1)n1sc2ccccc2c1=O` [drawing 21] gave an IC50 of 458 ± 16 nM. Compound `O=C(NCCCCC1CCCCC1)n1sc2ccccc2c1=O` [drawing 22] has an IC50 of 482 ± 21 nM.

Tested on: not given
Assay: not given
Details: not given
`CCNC(=O)n1sc2ccccc2c1=O` [Example 1, 3-Oxo-3H-benzo[d]isothiazole-2-carboxylic acid ethylamide] gave a melting point of 123 to 124 °C. For `CCCNC(=O)n1sc2ccccc2c1=O` [Example 2, 3-Oxo-3H-benzo[d]isothiazole-2-carboxylic acid propylamide], the melting point was 90 to 91 °C. In the case of `C=CCNC(=O)n1sc2ccccc2c1=O` [Example 3, 3-Oxo-3H-benzo[d]isothiazole-2-carboxylic acid allylamide], the melting point is reported as 116 to 119 °C. In the case of `CCCCCNC(=O)n1sc2ccccc2c1=O` [Example 4, 3-Oxo-3H-benzo[d]isothiazole-2-carboxylic acid pentylamide], the melting point is reported as 42 to 44 °C. Work on `CCc1cccc(C)c1CNC(=O)n1sc2ccccc2c1=O` [Example 13, 3-Oxo-3H-benzo[d]isothiazole-2-carboxylic acid 2-ethyl-6-methyl-benzylamide] yielded a melting point of 102 to 104 °C. For `Cc1cccc(C(C)C)c1CNC(=O)n1sc2ccccc2c1=O` [Example 14, 3-Oxo-3H-benzo[d]isothiazole-2-carboxylic acid 2-isopropyl-6-methyl-benzylamide], the melting point was 102 to 103 °C. `O=C(NCCc1ccccc1)n1sc2ccccc2c1=O` [Example 15, 3-Oxo-3H-benzo[d]isothiazole-2-carboxylic acid phenethylamide] gave a melting point of 153 to 155 °C. With `O=C(NCCCc1ccccc1)n1sc2ccccc2c1=O` [Example 17, 3-Oxo-3H-benzo[d]isothiazole-2-carboxylic acid (3-phenyl-propyl)-amide] the melting point was 109 to 111 °C. `O=C(NCCCCc1ccccc1)n1sc2ccccc2c1=O` [Example 18, 3-Oxo-3H-benzo[d]isothiazole-2-carboxylic acid (4-phenyl-butyl)-amide] showed a melting point of 119 to 120 °C. Work on `O=C(NCCCCC1CCCCC1)n1sc2ccccc2c1=O` [Example 19, 3-Oxo-3H-benzo[d]isothiazole-2-carboxylic acid (4-cyclohexyl-butyl)-amide] yielded a melting point of 76 to 78 °C.
